PMC11318101, “Fragment-Based Screen of SARS-CoV-2 Papain-like Protease (PL^pro)” (ACS Medicinal Chemistry Letters, 2024)

Target: SARS-CoV-2 PLPro (full-length, intact C111) (Severe acute respiratory syndrome coronavirus 2, UniProt P0DTD1, C1833S)
Format: biochemical

Compound | inhibition at 1 mM
Cc1ccc(Nc2cc(C)nc3nncn23)c(C)c1 [Fragment 11] | 2%
Cc1cc(Nc2ccccc2C)n2ncnc2n1 [Fragment 9] | 5%
CC(C)c1cc(O)n2ncc(-c3ccccc3)c2n1 [Fragment 8] | 62%
Cn1ncc2c(Nc3ccccc3Cl)ncnc21 [Fragment 7] | 30%
